Measured values reported in patent publication US8377884B2, “Variants of C-type natriuretic peptides” (Biomarin Pharmaceutical Inc., priority 2007, dated 2013).
Where two headings read alike, the source gives them in different places. Values belong to the compound of their own block, whether it stands above or below them. Bridge positions count the residues as written; N and C are the ends. Square brackets hold non-standard residues; d marks the D form. Ends that are not written are not given here. Peptide text beside a SMILES is read from it. * marks the point of attachment. Phe(3,4-Cl2) = N[C@@H](Cc1ccc(Cl)c(Cl)c1)C(=O)O; Phe(3-Me) = Cc1cccc(C[C@H](N)C(=O)O)c1; PEO12 = monodispersed PEO, 0.6 kDa; PEO24 = monodispersed, 1.2 kDa; Heptanoyl = CCCCCCC(=O)*; Pentanoyl = CCCCC(=O)*

Legend:
[1] = molecular target: neutral endopeptidase (NEP) (Homo sapiens, UniProt P08473); experiment: In vitro neutral endopeptidase (NEP) cleavage assay; settings: human, pH 7
Sequence of neutral endopeptidase (NEP) (P08473 whole entry): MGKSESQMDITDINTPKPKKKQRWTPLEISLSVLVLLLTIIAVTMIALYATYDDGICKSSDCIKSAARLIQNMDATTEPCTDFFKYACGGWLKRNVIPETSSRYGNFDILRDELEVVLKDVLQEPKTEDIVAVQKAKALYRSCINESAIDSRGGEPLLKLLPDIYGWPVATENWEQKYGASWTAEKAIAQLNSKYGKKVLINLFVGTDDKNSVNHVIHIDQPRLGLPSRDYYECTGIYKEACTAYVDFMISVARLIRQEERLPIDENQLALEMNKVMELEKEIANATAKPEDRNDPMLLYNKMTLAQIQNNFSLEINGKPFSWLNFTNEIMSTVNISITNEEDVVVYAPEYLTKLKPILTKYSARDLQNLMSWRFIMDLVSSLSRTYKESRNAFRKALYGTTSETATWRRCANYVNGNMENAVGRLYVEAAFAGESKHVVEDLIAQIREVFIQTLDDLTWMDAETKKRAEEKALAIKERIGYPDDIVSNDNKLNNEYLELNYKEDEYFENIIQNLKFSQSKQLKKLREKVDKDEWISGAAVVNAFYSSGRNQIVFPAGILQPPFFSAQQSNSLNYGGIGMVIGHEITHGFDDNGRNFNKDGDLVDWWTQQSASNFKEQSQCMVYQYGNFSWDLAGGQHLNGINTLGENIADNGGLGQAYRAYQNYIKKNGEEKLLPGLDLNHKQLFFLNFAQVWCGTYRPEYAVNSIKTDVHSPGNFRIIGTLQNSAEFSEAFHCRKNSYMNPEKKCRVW
Description: To determine the effects of amino acid substitutions, amino acid extensions, backbone modifications, side chain modifications and PEGylation on the susceptibility of CNP variants to neutral endopeptidase (NEP) cleavage, peptide cleavage assays were carried out using an in vitro assay that monitored disappearance of the non-cleaved CNP variant.
Recombinant human NEP (1 ug/mL final concentration) was added to 100 uM CNP variant diluted in 0.1 M Tris, pH 7. The reaction mixture was incubated at 37° C. for various periods of time, and the reaction was quenched with EDTA (10 mM final) followed by heat denaturation. The reaction mixture was reduced and then the reaction products were analyzed using HPLC and mass spectroscopy. The half-life of the CNP variant was calculated based on the disappearance of intact CNP variant over time.

[2] = molecular target: T1, NPR-B (Mus musculus, UniProt Q6VVW5); experiment: Stimulation of cGMP production in NIH3T3 cells; format: cell-based, Murine; settings: for cGMP response relative to 1 uM CNP22 (%) at 0.01 µM: read-out: cGMP Response rel. to 1 uM CNP22, 10 nM; for cGMP response relative to 1 uM CNP22 (%) at 1 µM: read-out: cGMP Response rel. to 1 uM CNP22, 1 uM
T1 construct: Murine NIH3T3 cells express endogenously the CNP signaling receptor, NPR-B; endogenous in cells; host or cells: NIH3T3 (murine fibroblasts)
T1 sequence (Q6VVW5 17-1047): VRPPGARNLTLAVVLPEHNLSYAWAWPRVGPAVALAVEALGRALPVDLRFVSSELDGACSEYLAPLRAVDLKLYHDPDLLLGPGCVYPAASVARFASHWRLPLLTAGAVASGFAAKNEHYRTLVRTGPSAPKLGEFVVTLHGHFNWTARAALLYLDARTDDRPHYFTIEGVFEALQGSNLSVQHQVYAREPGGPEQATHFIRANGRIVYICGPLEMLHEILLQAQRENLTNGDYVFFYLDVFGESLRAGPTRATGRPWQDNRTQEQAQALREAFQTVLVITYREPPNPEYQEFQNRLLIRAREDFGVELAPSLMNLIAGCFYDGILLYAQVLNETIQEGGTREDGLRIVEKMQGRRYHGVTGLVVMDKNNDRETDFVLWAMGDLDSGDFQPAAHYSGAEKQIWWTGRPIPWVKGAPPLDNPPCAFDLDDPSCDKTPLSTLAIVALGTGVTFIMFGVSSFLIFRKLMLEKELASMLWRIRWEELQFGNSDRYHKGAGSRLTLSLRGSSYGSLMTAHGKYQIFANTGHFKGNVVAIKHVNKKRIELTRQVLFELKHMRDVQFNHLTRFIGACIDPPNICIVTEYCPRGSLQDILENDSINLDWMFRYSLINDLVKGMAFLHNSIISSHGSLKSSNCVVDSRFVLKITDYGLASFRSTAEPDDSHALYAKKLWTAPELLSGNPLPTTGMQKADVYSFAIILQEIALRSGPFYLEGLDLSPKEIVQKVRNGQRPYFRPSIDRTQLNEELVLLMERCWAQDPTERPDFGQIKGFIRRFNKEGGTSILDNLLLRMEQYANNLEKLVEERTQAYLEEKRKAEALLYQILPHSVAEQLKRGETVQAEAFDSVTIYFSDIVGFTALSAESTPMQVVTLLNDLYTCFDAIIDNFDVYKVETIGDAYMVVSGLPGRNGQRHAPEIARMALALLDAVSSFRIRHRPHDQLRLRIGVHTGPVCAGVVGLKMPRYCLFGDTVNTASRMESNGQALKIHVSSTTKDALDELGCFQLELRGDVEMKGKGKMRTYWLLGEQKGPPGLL

[3] = recombinant human neutral endopeptidase (NEP)
[4] = NIH3T3 cells, 10 nM natriuretic peptide, normalized to cell number and cGMP production with 1 uM wtCNP22
[5] = NIH3T3 cells, 1 uM natriuretic peptide, normalized to cell number and cGMP production with 1 uM wtCNP22

Compound: CCCCC(=O)N[C@@H](CCC(=O)O)C(=O)N[C@@H](CC(C)C)C(=O)N[C@@H](CO)C(=O)N[C@@H](CCC(=O)O)C(=O)NCC(=O)N[C@H]1CSSC[C@@H](C(=O)O)NC(=O)CNC(=O)[C@H](CC(C)C)NC(=O)CNC(=O)[C@H](CO)NC(=O)[C@H](CCSC)NC(=O)[C@H](CO)NC(=O)CNC(=O)[C@H]([C@@H](C)CC)NC(=O)[C@H](CCCNC(=N)N)NC(=O)[C@H](CC(=O)O)NC(=O)[C@H](CC(C)C)NC(=O)[C@H](CCCCN)NC(=O)[C@H](CC(C)C)NC(=O)CNC(=O)[C@H](Cc2ccccc2)NC1=O [AV] (Pentanoyl-ELSEGCFGLKLDRIGSMSGLGC-OH; disulfide 6-22 (inferred); C-terminus assumed)
half-life at 100 uM [1, 3]: 120 min

Compound: CCCCCCC(=O)N[C@@H](CCC(=O)O)C(=O)N[C@@H](CC(C)C)C(=O)N[C@@H](CO)C(=O)N[C@@H](CCC(=O)O)C(=O)NCC(=O)N[C@H]1CSSC[C@@H](C(=O)O)NC(=O)CNC(=O)[C@H](CC(C)C)NC(=O)CNC(=O)[C@H](CO)NC(=O)[C@H](CCSC)NC(=O)[C@H](CO)NC(=O)CNC(=O)[C@H]([C@@H](C)CC)NC(=O)[C@H](CCCNC(=N)N)NC(=O)[C@H](CC(=O)O)NC(=O)[C@H](CC(C)C)NC(=O)[C@H](CCCCN)NC(=O)[C@H](CC(C)C)NC(=O)CNC(=O)[C@H](Cc2ccccc2)NC1=O [AW] (Heptanoyl-ELSEGCFGLKLDRIGSMSGLGC-OH; disulfide 6-22; C-terminus assumed)
half-life at 100 uM [1]: < 20 min

Compound: CC[C@H](C)[C@@H]1NC(=O)[C@H](CCCNC(=N)N)NC(=O)[C@H](CC(=O)O)NC(=O)[C@H](CC(C)C)NC(=O)[C@H](CCCCN)NC(=O)[C@H](CC(C)C)NC(=O)CNC(=O)[C@H](Cc2ccccc2)NC(=O)[C@@H](NC(=O)CNC(=O)[C@H](CCCCN)NC(=O)[C@H](CO)NC(=O)[C@H](CC(C)C)NC(=O)CNC(=O)[C@H](CCC(N)=O)NC(=O)[C@H](CCC(N)=O)NC(=O)[C@H](CC(N)=O)NC(=O)[C@H](C)NC(=O)CNC(=O)[C@H](CCCCN)NC(=O)[C@H](Cc2ccc(O)cc2)NC(=O)[C@H](CCCCN)NC(=O)[C@H](CCCNC(=N)N)NC(=O)[C@H](C)NC(=O)[C@H](CC(N)=O)NC(=O)[C@@H]2CCCN2C(=O)[C@H](Cc2c[nH]cn2)NC(=O)[C@H](CCC(=O)O)NC(=O)[C@H](CCC(N)=O)NC(=O)CN)CSSC[C@@H](C(=O)O)NC(=O)CNC(=O)[C@H](CC(C)C)NC(=O)CNC(=O)[C@H](CO)NC(=O)[C@H](CCSC)NC(=O)[C@H](CO)NC(=O)CNC1=O [CU] (H-GQEHPNARKYKGANQQGLSKGCFGLKLDRIGSMSGLGC-OH; disulfide 22-38 (inferred); N-terminus and C-terminus assumed)
cGMP response relative to 1 uM CNP22 (%) at 0.01 µM [2, 4]: 9%
cGMP response relative to 1 uM CNP22 (%) at 1 µM [2, 5]: 57%

Compound: CC[C@H](C)[C@@H]1NC(=O)[C@H](CCCNC(=N)N)NC(=O)[C@H](CC(=O)O)NC(=O)[C@H](CC(C)C)NC(=O)[C@H](CCCCN)NC(=O)[C@H](CC(C)C)NC(=O)CNC(=O)[C@@H](Cc2ccccc2)NC(=O)[C@@H](NC(=O)CNC(=O)[C@H](CCCCN)NC(=O)[C@H](CO)NC(=O)[C@H](CC(C)C)NC(=O)CN)CSSC[C@@H](C(=O)O)NC(=O)CNC(=O)[C@H](CC(C)C)NC(=O)CNC(=O)[C@H](CO)NC(=O)[C@H](CCSC)NC(=O)[C@H](CO)NC(=O)CNC1=O [E]
cGMP response relative to 1 uM CNP22 (%) at 0.01 µM ([2]; NIH3T3, […]): 2%
cGMP response relative to 1 uM CNP22 (%) at 1 µM ([2]; NIH3T3, […]): 6%

Compound: CC[C@H](C)[C@@H]1NC(=O)[C@H](CCCNC(=N)N)NC(=O)[C@H](CC(=O)O)NC(=O)[C@H](CC(C)C)NC(=O)[C@H](CCCCN)NC(=O)[C@H](CC(C)C)N(C)C(=O)CNC(=O)[C@H](Cc2ccccc2)NC[C@@H](NC(=O)CNC(=O)[C@H](CCCCN)NC(=O)[C@H](CO)NC(=O)[C@H](CC(C)C)NC(=O)CN)CSSC[C@@H](C(=O)O)NC(=O)CNC(=O)[C@H](CC(C)C)N(C)C(=O)CNC(=O)[C@H](CO)NC(=O)[C@H](CCSC)NC(=O)[C@H](CO)NC(=O)CNC1=O [J]
half-life at 100 uM [1]: 50 min

Compound: PEO12-CNP22, K4R: CNP22, K4R conjugated at the N-terminus to PEO12 (PEO12-GLSRGCFGLKLDRIGSMSGLGC; disulfide 6-22 (inferred); UniProt P23582 105-126, looked up, variant K4R)
cGMP Response rel. to 1 uM CNP22, 10 nM [2, 4]: 13
cGMP Response rel. to 1 uM CNP22, 1 uM [2, 5]: 44

Next, values leading:

half-life at 100 uM [1, 3]: 68 min
Compound: CC[C@H](C)[C@@H]1NC(=O)[C@H](CCCNC(=N)N)NC(=O)[C@H](CC(=O)O)NC(=O)[C@H](CC(C)C)NC(=O)[C@H](CCCCN)NC(=O)[C@H](CC(C)C)NC(=O)CNC(=O)[C@H](Cc2ccc(Cl)c(Cl)c2)NC(=O)[C@@H](NC(=O)CNC(=O)CNC(=O)[C@H](CO)NC(=O)[C@H](CC(C)C)NC(=O)CN)CSSC[C@@H](C(=O)O)NC(=O)CNC(=O)[C@H](CC(C)C)NC(=O)CNC(=O)[C@H](CO)NC(=O)[C@H](CCSC)NC(=O)[C@H](CO)NC(=O)CNC1=O [V] (H-GLSGGC[Phe(3,4-Cl2)]GLKLDRIGSMSGLGC-OH; disulfide 6-22)

half-life at 100 uM [1, 3]: 68 min
Compound: CC[C@H](C)[C@@H]1NC(=O)[C@H](CCCNC(=N)N)NC(=O)[C@H](CC(=O)O)NC(=O)[C@H](CC(C)C)NC(=O)[C@H](CCCCN)NC(=O)[C@H](CC(C)C)NC(=O)CNC(=O)[C@H](Cc2cccc(C)c2)NC(=O)[C@@H](NC(=O)CNC(=O)CNC(=O)[C@H](CO)NC(=O)[C@H](CC(C)C)NC(=O)CN)CSSC[C@@H](C(=O)O)NC(=O)CNC(=O)[C@H](CC(C)C)NC(=O)CNC(=O)[C@H](CO)NC(=O)[C@H](CCSC)NC(=O)[C@H](CO)NC(=O)CNC1=O [X] (H-GLSGGC[Phe(3-Me)]GLKLDRIGSMSGLGC-OH; disulfide 6-22)

cGMP response relative to 1 uM CNP22 (%) at 0.01 µM [2, 4]: 2%
cGMP response relative to 1 uM CNP22 (%) at 1 µM [2, 5]: 18%
Compound: CC[C@H](C)[C@@H]1NC(=O)[C@H](CCCNC(=N)N)NC(=O)[C@H](CC(=O)O)NC(=O)[C@H](CC(C)C)NC(=O)[C@H](CCCCN)NC(=O)[C@H](CC(C)C)NC(=O)CNC(=O)[C@H](Cc2ccc(O)cc2)NC(=O)[C@@H](NC(=O)CNC(=O)[C@H](CCCNC(=N)N)NC(=O)[C@H](CO)NC(=O)[C@H](CC(C)C)NC(=O)CN)CSSC[C@@H](C(=O)O)NC(=O)CNC(=O)[C@H](CC(C)C)NC(=O)CNC(=O)[C@H](CO)NC(=O)[C@H](CCSC)NC(=O)[C@H](CO)NC(=O)CNC1=O [Z] (H-GLSRGCYGLKLDRIGSMSGLGC-OH; disulfide 6-22 (inferred); N-terminus and C-terminus assumed)

cGMP Response rel. to 1 uM CNP22, 10 nM [2, 4]: 15
cGMP Response rel. to 1 uM CNP22, 1 uM [2, 5]: 56
Compound: PEO24-CNP22, K4R: CNP22, K4R conjugated at the N-terminus to PEO24 (PEO24-GLSRGCFGLKLDRIGSMSGLGC; disulfide 6-22 (inferred); UniProt P23582 105-126, looked up, variant K4R)

cGMP Response rel. to 1 uM CNP22, 10 nM [2, 4]: 15 ± 2
cGMP Response rel. to 1 uM CNP22, 1 uM [2, 5]: 75 ± 12
Compound: PEO24-R-CNP22, K4R: R-CNP22, K4R conjugated at the N-terminus to PEO24 (PEO24-RGLSRGCFGLKLDRIGSMSGLGC; disulfide 7-23 (inferred))
